Measured values published in patent US20220088102A1, “CROTON LECHLERI COMPOSITIONS AND THEIR USE IN THE TREATMENT OF CYSTIC FIBROSIS” (priority 2020, published 2022).
Values after ≈ are worked out from the molar mass of the structure shown. Like-named read-outs stand apart in the source and are kept apart here.

Tests used:
[1] = Log P analysis (partition coefficient, water and n-Octanol)
Excerpt: (§1) All reference to skin includes references to epithelial skin and epithelial layer of the lungs, nose, mouth and throat. IVPT is a flux measurement that is common to those skilled in the art to evaluate topical drugs inclusive to topical delivery to the lungs, nose, mouth and throat.
Log P is an assessment of a molecule's lipophilicity, indicating how readily an analyte can partition between aqueous and organic phases. […] To reach high systemic levels, a topical drug must be permeable enough, which is defined as lipophilic enough, to partition into the lipid bilayer of the skin, but, not so lipophilic that once it is in the skin bilayer it will stay sequestered there. Lipophilicity plays a major role in determining where drugs are distributed within the body after absorption into tissues and, as a consequence, in how rapidly they are metabolized and excreted.
The Log P value is a constant defined in the following manner: Log P=log 10 (Partition Coefficient) Partition Coefficient, P=[organic]/[aqueous] Where [ ] indicates the concentration of solute in the organic and aqueous partition. […] Although log P is a constant, its value is dependent on the choice of the organic partitioning solvent and, to a lesser degree, on the conditions of measurement.

DNA of the cells = conditions: Chen 1994, cited from earlier work
[2] = In vitro Permeation Test (IVPT), Franz diffusion cell, Strat-M membranes
Excerpt: as §1

[3] = tested on: methicillin-susceptible Staphylococcus aureus (MSSA) strains; experiment: In vitro MIC and MBC assay, strain panel (Example 3); assay type: cell-based; conditions: for MIC (% relative to amount in AB-101): 50% = 10 μg/mL taspine
Excerpt: (§2) Measures included the minimum inhibitory concentration (MIC) which is the lowest concentration of AB-101 that prevents visible growth of the bacterium or pathogen, and minimum bactericidal concentration (MBC) which is the lowest concentration of an antibacterial agent required to kill a bacterium.

[4] = tested on: methicillin-resistant Staphylococcus aureus (MRSA) strains; experiment: as above; assay type: cell-based; conditions: for MIC: MRSA (Table 13); for MBC (% relative to amount in AB-101) / MIC (% relative to amount in AB-101): MRSA; for MIC (% relative to amount in AB-101): 50% = 10 μg/mL taspine
Excerpt: as §2

[5] = component of AB-101, 100%, Batch 0
[6] = component of AB-101, 100%, Batch 1
[7] = component of AB-101, 100%, Batch 2
[8] = component of AB-101, 100%, Batch X
[9] = component of AB-101 Lyophilized & Resuspended, Batch 0
[10] = component of AB-101 Lyophilized & Resuspended, Batch 1
[11] = component of AB-101 Lyophilized & Resuspended, Batch 2
[12] = component of AB-101 Lyophilized & Resuspended, Batch X
[13] = strain ATCC 29213, QC control (Table 13)
[14] = strain CDC 461, MupirocinS, MSSA (Table 13)
[15] = strain CDC 463, MupirocinS, MSSA (Table 13)
[16] = highest concentration tested 50% relative to AB-101 = 10 μg/mL taspine
[17] = strain 1674606, MupirocinR, MSSA
[18] = strain 1674608, MupirocinR, MSSA
[19] = strain CDC 461, MupirocinS, MSSA
[20] = strain CDC 462, MupirocinS, MSSA
[21] = strain CDC 463, MupirocinS, MSSA
[22] = strain CDC 464, MupirocinS, MSSA
[23] = strain CDC 484, MupirocinS, MSSA
[24] = strain CDC 485, MupirocinS, MSSA

## Oc1cc(O)c2c(c1)O[C@H](c1cc(O)c(O)c(O)c1)[C@H](O)C2 [Epigallocatcchin]
[1]; [5]
  LogP: −0.79
[1]; [6]
  LogP: 0.27
[1]; [7]
  LogP: 0.86
[1]; [8]
  LogP: 1.82
[1]; [9]
  LogP: 1.20
[1]; [10]
  LogP: −0.11
[1]; [11]
  LogP: −1.71
[1]; [12]
  LogP: −0.55

## Oc1cc(O)c2c(c1)O[C@H](c1cc(O)c(O)c(O)c1)[C@H](O)C2 [Epigallocatechin, epigallocatechin]
DNA of the cells
  effect on cell proliferation: slightly stimulating to cell proliferation
[2]; component permeating from AB-101 100% Lot 1
  Flux (J): 503.51 ug/cm^2/hr
[2]; component permeating from AB-101 100% Lot X
  Flux (J): 57.09 ug/cm^2/hr

## COc1cccc(OC)c1C(=O)N[C@@H]1C(=O)N2[C@@H]1SC(C)(C)[C@@H]2C(=O)O [Methicillin]
[3]; strain 1674606, MupirocinR, MSSA (Table 13)
  MIC: 0.002 to 0.008 ng/mL
[3]; strain 1674608, MupirocinR, MSSA (Table 13)
  MIC: 0.002 to 0.004 ng/mL
[3]; [13]
  MIC: 0.001 to 0.002 ng/mL
[3]; [14]
  MIC: 0.004 to 0.008 ng/mL
[3]; [15]
  MIC: 0.008 to 0.016 ng/mL
[3]; strain CDC 485, MupirocinS, MSSA (Table 13)
  MIC: 0.002 to 0.004 ng/mL
[4]; strain CDC 480, MupirocinS
  MIC: 0.032 to 0.064 ng/mL
[4]; strain CDC 481, MupirocinS
  MIC: 0.016 to 0.032 ng/mL
[4]; strain CDC 482, MupirocinS
  MIC: 0.008 to 0.032 ng/mL

## C/C(=C\C(=O)OCCCCCCCCC(=O)O)C[C@@H]1OC[C@H](C[C@@H]2O[C@H]2[C@@H](C)[C@H](C)O)[C@@H](O)[C@H]1O [Mupirocin]
[3]; Staphylococcus aureus, MSSA, strain 1674606, MupirocinR, MSSA, read-out: MIC
  MIC: > 256000 ng/mL
[3]; Staphylococcus aureus, MSSA, strain 1674608, MupirocinR, MSSA, read-out: MIC
  MIC: > 256000 ng/mL
[3]; Staphylococcus aureus, MSSA, strain CDC 463, MupirocinS, MSSA, read-out: MIC
  MIC: 250 to 500 ng/mL (≈ 499 to 999 nM)
[3]; Staphylococcus aureus, MSSA, strain CDC 484, MupirocinS, MSSA, read-out: MIC
  MIC: ≤ 250 ng/mL
[3]; Staphylococcus aureus, MSSA, strain CDC 485, MupirocinS, MSSA, read-out: MIC
  MIC: ≤ 250 ng/mL
[3]; [13]
  MIC: ≤0.00025 to 0.0005 ng/mL
[3]; [14]
  MIC: ≤0.00025 to 0.001 ng/mL
[3]; [15]
  MIC: ≤0.00025 to 0.0005 ng/mL
[4]; strain CDC 227, MupirocinS
  MIC: ≤0.00025 to 0.0005 ng/mL

## COc1ccc2c(=O)oc3c(OC)cc(CCN(C)C)c4c(=O)oc1c2c34 [Taspin]
[1]; [5]
  LogP: −1.15
[1]; [6]
  LogP: −1.76
[1]; [7]
  LogP: −0.90
[1]; [8]
  LogP: −0.31
[1]; [9]
  LogP: −1.06
[1]; [10]
  LogP: −0.94
[1]; [11]
  LogP: −1.71
[1]; [12]
  LogP: −0.07

## COc1ccc2c(=O)oc3c(OC)cc(CCN(C)C)c4c(=O)oc1c2c34 [Taspine, taspine]
[3]; [16]
  activity as evaluated by this invitro test method (MIC, MBC): does not have activity
[3]; [17]
  MBC (% relative to amount in AB-101): >50 % relative to amount in AB-101
  MIC (% relative to amount in AB-101): >50 % relative to amount in AB-101
[3]; [18]
  MBC (% relative to amount in AB-101): >50 % relative to amount in AB-101
  MIC (% relative to amount in AB-101): >50 % relative to amount in AB-101
[3]; strain ATCC 29213, QC control
  MBC (% relative to amount in AB-101): >50 % relative to amount in AB-101
  MIC (% relative to amount in AB-101): >50 % relative to amount in AB-101
[3]; [19]
  MBC (% relative to amount in AB-101): >50 % relative to amount in AB-101
  MIC (% relative to amount in AB-101): >50 % relative to amount in AB-101
[3]; [20]
  MBC (% relative to amount in AB-101): >50 % relative to amount in AB-101
  MIC (% relative to amount in AB-101): >50 % relative to amount in AB-101
[3]; [21]
  MBC (% relative to amount in AB-101): >50 % relative to amount in AB-101
  MIC (% relative to amount in AB-101): >50 % relative to amount in AB-101
[3]; [22]
  MBC (% relative to amount in AB-101): >50 % relative to amount in AB-101
  MIC (% relative to amount in AB-101): >50 % relative to amount in AB-101
[3]; [23]
  MBC (% relative to amount in AB-101): >50 % relative to amount in AB-101
  MIC (% relative to amount in AB-101): >50 % relative to amount in AB-101
[3]; [24]
  MBC (% relative to amount in AB-101): >50 % relative to amount in AB-101
  MIC (% relative to amount in AB-101): >50 % relative to amount in AB-101
[4]; [16]
  activity as evaluated by this invitro test method (MIC, MBC): does not have activity
[4]; strain 1674607, MupirocinR
  MBC (% relative to amount in AB-101): >50 % relative to amount in AB-101
  MIC (% relative to amount in AB-101): >50 % relative to amount in AB-101
[4]; strain 1674611, MupirocinR
  MBC (% relative to amount in AB-101): >50 % relative to amount in AB-101
  MIC (% relative to amount in AB-101): >50 % relative to amount in AB-101
[4]; strain CDC 218, MupirocinR
  MBC (% relative to amount in AB-101): >50 % relative to amount in AB-101
  MIC (% relative to amount in AB-101): >50 % relative to amount in AB-101
[4]; strain CDC 220, MupirocinS
  MBC (% relative to amount in AB-101): >50 % relative to amount in AB-101
  MIC (% relative to amount in AB-101): >50 % relative to amount in AB-101
[4]; strain CDC 224, MupirocinR
  MBC (% relative to amount in AB-101): >50 % relative to amount in AB-101
  MIC (% relative to amount in AB-101): >50 % relative to amount in AB-101
[4]; strain CDC 227, MupirocinS
  MBC (% relative to amount in AB-101): >50 % relative to amount in AB-101
  MIC (% relative to amount in AB-101): >50 % relative to amount in AB-101
[4]; strain CDC 228, MupirocinR
  MBC (% relative to amount in AB-101): >50 % relative to amount in AB-101
  MIC (% relative to amount in AB-101): >50 % relative to amount in AB-101
[4]; strain CDC 480, MupirocinS
  MBC (% relative to amount in AB-101): >50 % relative to amount in AB-101
  MIC (% relative to amount in AB-101): >50 % relative to amount in AB-101
[4]; strain CDC 481, MupirocinS
  MBC (% relative to amount in AB-101): >50 % relative to amount in AB-101
  MIC (% relative to amount in AB-101): >50 % relative to amount in AB-101
[4]; strain CDC 482, MupirocinS
  MBC (% relative to amount in AB-101): >50 % relative to amount in AB-101
  MIC (% relative to amount in AB-101): >50 % relative to amount in AB-101
[4]; strain CDC 483, MupirocinS
  MBC (% relative to amount in AB-101): >50 % relative to amount in AB-101
  MIC (% relative to amount in AB-101): >50 % relative to amount in AB-101
DNA of the cells; in the Ecuadorian sap
  healing effects: showed little healing effects

## catechin
DNA of the cells
  effect on cell proliferation: showed little effect

## epicatechin
DNA of the cells
  effect on cell proliferation: showed little effect
